Structures can show the parent of a compound that is named as a salt.
Legend:
[1] = molecular target: MNK2 (Homo sapiens (Human), UniProt Q9HBH9); test: In vitro MNK kinase assay (Caliper LabChip mobility shift); type: biochemical; conditions: enzymatic, 250 μM ATP; read-out: IC50 Mnk2
[2] = molecular target: MNK1 (Homo sapiens, UniProt Q9BUB5); test: as above; type: biochemical; conditions: enzymatic, 1.2 mM ATP; read-out: IC50 Mnk1

Sequence of MNK2 (Q9HBH9 84-388): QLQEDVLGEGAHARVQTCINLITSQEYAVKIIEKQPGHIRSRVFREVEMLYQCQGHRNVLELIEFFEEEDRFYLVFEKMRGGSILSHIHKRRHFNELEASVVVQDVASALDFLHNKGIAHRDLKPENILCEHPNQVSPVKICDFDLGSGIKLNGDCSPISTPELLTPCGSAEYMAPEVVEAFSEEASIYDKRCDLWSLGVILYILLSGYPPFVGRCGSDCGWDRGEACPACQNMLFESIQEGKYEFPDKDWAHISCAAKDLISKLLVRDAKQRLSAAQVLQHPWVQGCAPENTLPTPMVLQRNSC

IC50 [1] [nM]	IC50 [2] [nM]	Structure (SMILES)
< 100	< 1000	CN1CCN(C(=O)c2ccc(-c3ccc4ncc(-c5ccc(C#N)cc5)n4c3)cc2F)CC1 [Example 142, 4-(6-(3-fluoro-4-(4-methylpiperazine-1-carbonyl)phenyl)imidazo[1,2-a]pyridin-3-yl)benzonitrile]
< 100	< 100	CN1CCN(C(=O)c2ccc(-c3ccc4ncc(-c5ccc6[nH]ncc6c5)n4n3)cc2)CC1 [Example 86, (4-(3-(1H-indazol-5-yl)imidazo[1,2-b]pyridazin-6-yl)phenyl)(4-methylpiperazin-1-yl)methanone]
< 1000	< 1000	CC(=O)Nc1cc(-c2ccc3ncc(-c4ccc(C#N)cc4)n3c2)ccc1C(=O)N1CCN(C)CC1 [Example 149, N-(5-(3-(4-cyanophenyl)imidazo[1,2-a]pyridin-6-yl)-2-(4-methylpiperazine-1-carbonyl)phenyl)acetamide]
< 100	< 100	CNc1cc(-c2ccc3ncc(-c4ccc(C#N)cc4)n3c2)ccc1C(=O)N1CCN(C)CC1 [Example 150, 4-(6-(3-(methylamino)-4-(4-methylpiperazine-1-carbonyl)phenyl)imidazo[1,2-a]pyridin-3-yl)benzonitrile]
< 100	< 100	CN1CCN(C2(C)CCN(C(=O)c3ccc(-c4ccc5ncc(-c6ccc(C#N)cc6)n5c4)cc3)CC2)CC1 [Example 164, 4-(6-(4-(4-methyl-4-(4-methylpiperazin-1-yl)piperidine-1-carbonyl)phenyl)imidazo[1,2-a]pyridin-3-0)benzonitrile]
< 100	< 100	CN1CCN(C(=O)c2ccc(-c3ccc4ncc(-c5ccc6c(c5)CC(=O)N6)n4n3)cc2)CC1 [Example 85, 5-(6-(4-(4-methylpiperazine-1-carbonyl)phenyl)imidazo[1,2-b]pyridazin-3-yl)indolin-2-one]
< 100	< 100	N#Cc1ccc(-c2cnn3ccc(-c4ccc(C(=O)N5CCOCC5)c(O)c4)nc23)cc1 [Example 187, 4-(5-(3-hydroxy-4-(morpholine-4-carbonyl)phenyl)pyrazolo[1,5-a]pyrimidin-3-yl)benzonitrile]
< 100	< 100	CN1CCN(C2CCN(C(=O)c3ccc(-c4ccc5ncc(-c6ccc7c(c6)CC(=O)N7)n5n4)cc3)CC2)CC1 [Example 89, 5-(6-(4-(4-(4-methylpiperazin-1-yl)piperidine-1-carbonyl)phenyl)imidazol[1,2-b]pyridazin-3-yl)indolin-2-one]
< 100	< 100	CN1CCN(C(=O)c2ccc(-c3ccc4ncc(-c5ccc(C#N)cc5)n4n3)cc2[N+](=O)[O-])CC1 [Example 79, 4-(6-(4-(4-methylpiperazine-1-carbonyl)-3-nitrophenyl)imidazo[1,2-b]pyridazin-3-yl)benzonitrile]
< 1000	< 1000	N#Cc1ccc(-c2cnc3ccc(-c4ccc(C(=O)N5CCOCC5)c(F)c4)cn23)cc1 [Example 162, 4-(6-(3-fluoro-4-(morpholine-4-carbonyl)phenyl)imidazo[1,2-a]pyridin-3-yl)benzonitrile]
< 100	< 100	CN(C)C1CCN(C(=O)c2ccc(-c3ccc4ncc(-c5ccc(C#N)cc5)n4n3)cc2)CC1 [Example 63, 4-(6-(4-(4-(dimethylamino)piperidine-1-carbonyl)phenyl)imidazo[1,2-b]pyridazin-3-yl)benzonitrile]
< 100	< 100	N#Cc1ccc(-c2cnc3ccc(-c4ccc(C(=O)N5CCNCC5)cc4)cn23)cc1 [Example 165, 4-(6-(4-(piperazine-1-carbonyl)phenyl)imidazo[1,2-a]pyridin-3-yl)benzonitrile]
< 100	< 100	CN1CCN(C(=O)c2ccc(-c3ccc4ncc(-c5ccc(C#N)cc5)n4c3)cc2Cl)CC1 [Example 141, 4-(6-(3-chloro-4-(4-methylpiperazine-1-carbonyl)phenyl)imidazo[1,2-a]pyridin-3-yl)benzonitrile]

The next lines start with the compound.

Structure (SMILES)	IC50 [1] [nM]	IC50 [2] [nM]
CC1(N)CCN(C(=O)c2ccc(-c3ccc4ncc(-c5ccc(Cl)cc5)n4c3)cc2)CC1 [Example 173, (4-amino-4-methylpiperidin-1-yl)(4-(3-(4-chlorophenyl)imidazo[1,2-a]pyridin-6-yl)phenyl)methanone]	< 100	< 100
N#Cc1ccc(-c2cnn3ccc(-c4ccc(C(=O)N5CCNCC5)cc4)nc23)cc1 [Example 183, 4-(5-(4-(piperazine-1-carbonyl)phenyl)pyrazolo[1,5-a]pyrimidin-3-yl)benzonitrile]	< 100	< 100
CC(=O)Nc1cc(-c2ccc3ncc(-c4ccc(C#N)cc4)n3c2)ccc1C(=O)N1CCNCC1 [Example 170, N-(5-(3-(4-cyanophenyl)imidazo[1,2-a]pyridin-6-yl)-2-(piperazine-1-carbonyl)phenyl)acetamide]	< 100	< 100
CC(=O)N1CCN(C(=O)c2ccc(-c3ccn4ncc(-c5ccc(C#N)cc5)c4n3)cc2)CC1 [Example 184]	< 100	< 100
N#Cc1ccc(-c2cnc3ccc(-c4ccc(C(=O)NCC(=O)N5CCOCC5)cc4)cn23)cc1 [Example 115, 4-(3-(4-cyanophenyl)imidazo[1,2-a]pyridin-6-yl)-N-(2-morpholino-2-oxoethyl)benzamide]	< 1000	< 1000
N#Cc1ccc(-c2cnn3ccc(-c4ccc(C(=O)N5CCCOCC5)cc4)nc23)cc1 [Example 181, 4-(5-(4-(1,4-oxazepane-4-carbonyl)phenyl)pyrazolo[1,5-a]pyrimidin-3-yl)benzonitrile]	< 100	< 100
CS(=O)(=O)NC1CCN(C(=O)c2ccc(-c3ccc4ncc(-c5ccc(C#N)cc5)n4c3)cc2)CC1 [Example 111, N-(1-(4-(3-(4-cyanophenyl)imidazo[1,2-a]pyridin-6-yl)benzoyl)piperidin-4-yl)methanesulfonamide]	< 100	< 100
O=C(c1ccc(-c2cn3c(-c4ccc(Cl)cc4)cnc3cn2)cc1)N1CCNCC1 [Example 46, (4-(3-(4-chlorophenyl)imidazo[1,2-a]pyrazin-6-yl)phenyl)(piperazin-1-yl)methanone 2,2,2-trifluoroacetate salt]	< 1000	< 1000
CC(C)(C)N1CCN(C(=O)c2ccc(-c3cn4c(-c5ccc(C(N)=O)cc5)cnc4cn3)cc2)CC1 [Example 5, 4-(6-(4-(4-tert-butylpiperazine-1-carbonyl)phenyl)imidazo[1,2-a]pyrazin-3-yl)benzamide]	< 100	< 100
CCC1(N)CCN(C(=O)c2ccc(-c3ccc4ncc(-c5ccc(C#N)cc5)n4c3)cc2)CC1 [Example 113, 4-(6-(4-(4-amino-4-ethylpiperidine-1-carbonyl)phenyl)imidazo[1,2-a]pyridin-3-yl)benzonitrile]	< 100	< 100
N#Cc1ccc(-c2cnc3ccc(-c4ccc(C(=O)NCCN5CCOCC5)cc4)cn23)cc1 [Example 116, 4-(3-(4-cyanophenyl)imidazo[1,2-a]pyridin-6-yl)-N-(2-morpholinoethyl)benzamide]	< 1000	< 1000
CC1(N2CCOCC2)CCN(C(=O)c2ccc(-c3ccc4ncc(-c5ccc(C#N)cc5)n4c3)cc2)CC1 [Example 163, 4-(6-(4-(4-methyl-4-morpholinopiperidine-1-carbonyl)phenyl)imidazo[1,2-a]pyridin-3-yl)benzonitrile]	< 100	< 100
